# Test results: US9492466B2, “Beta-hydroxy-gamma-aminophosphonates for treating immune disorders” (Nucitec S.A. de C.V., priority 2012, dated 2016)
# Experiments:
# [1] = Level of glucose, triglycerides, cholesterol and liver glycogen; assay type: in vivo, obese (fa/fa) Zucker rats (ZDF); conditions: 100 mg/kg, eight weeks
# Protocol: To determine whether the morphological and functional changes (see EXAMPLES 6 and 7) were associated with an improvement in liver metabolism, the levels of glucose, triglycerides and cholesterol were quantified. Obese (fa/fa) Zucker rats (ZDF) and lean rats, as control, were used. Obese (fa/fa) Zucker rats (ZDF) were treated with a daily dose of Compound 2 (100 mg/kg) 5 days a week during eight weeks. Plasma from blood samples was collected, and the triglycerides, cholesterol and glucose levels were quantified by colorimetric methods. Also, liver samples were taken, and liver glycogen was measured.
# thymus and spleen = experiment: Histological studies of thymus and spleen tissue; assay type: in vivo, obese (fa/fa) Zucker rats; conditions: obese Zucker rats, hematoxylin and eosin
# Protocol: Samples of tissue from thymus (FIG. 6) and spleen (FIG. 7) were taken and histological sections were made and stained with hematoxylin and eosin from obese (fa/fa) Zucker rats and lean rats. The histological sections from thymus show a decrease in thymic medulla in samples from obese animals. When animals were treated with Compound 2 for five weeks, a recovery of the cellularity of medulla in this lymphoid organ was observed.
# THP-1 cells [2] = experiment: Phagocytic activity of THP-1 cells (yeast phagocytosis, flow cytometry); assay type: cell-based, human
# Protocol: The ability of (2R,3S)-(2-hydroxy-5-methyl-3-trimethylammonium-hexyl)-phosphonic acid dimethyl ester; iodide to induce the phagocytic activity of monocytic cells (THP-1 cells) was investigated. For this, THP-1 cells were differentiated using phorbol myristate 13-acetate (PMA, 100 ng/mL) in order to induce the phagocytic activity of yeast. When the cells were treated with PMA (100 ng/mL) for 48 hours cell differentiation of monocytic cells to macrophages was observed (FIG. 14). Yeast were added to cultured media and the phagocytosis was measured by flow cytometry (FIG. 15). (2R,3S)-(2-hydroxy-5-methyl-3-trimethylammonium-hexyl)-phosphonic acid dimethyl ester; iodide induced the phagocytosis of yeast by macrophages in a similar way that those macrophages treated with PMA alone.
# [3] = test system: T lymphocyte subpopulations; experiment: T lymphocyte subpopulations in bloodstream, thymus and spleen, 8 weeks of treatment; assay type: in vivo, obese (fa/fa) Zucker rats (ZDF); conditions: 100 mg/kg
# From the text: To determine whether the increase in lymphocytes is due to an increased production of lymphocytes or their mobility, the levels of T lymphocyte subpopulations in bloodstream, thymus, and spleen from obese (fa/fa) Zucker rats (ZDF) and lean rats (control), after 8 weeks of treatment with Compound 2 was investigated.
# Obese rats were used in this study. Lymphocyte populations from bloodstream, thymus, and spleen were identified and quantified by flow cytometry using mice monoclonal antibodies against rat CD3+ conjugated with different fluorochromes and analyzed on a FACS Calibur flow cytometer BD using the Cell Quest software.
# blood T-lymphocytes = experiment: T cell levels in blood of obese rats, 5 weeks of treatment; assay type: in vivo, obese (fa/fa) Zucker rats; conditions: obese Zucker rats, 100 mg/kg
# Protocol: Compound 2 (100 mg/kg) was administered to obese (fa/fa) Zucker rats five days a week for 5 weeks. […] The level of T helper (CD4+) increased; cytotoxic T-lymphocyte(CD8+) levels remained unchanged.
# The effect of Compound 2 on T lymphocyte populations in normal and unhealthy rats was investigated. Obese (fa/fa) Zucker rats (ZDF) and lean Wistar rats, as control, were used. Zucker rats present a mutation in the leptin receptor, which is the molecular basis of their characteristic phenotype (loss of satiety). Obese Zucker rats are considered representative of obesity-associated type diabetes in humans. They are hyperlipidaemic, grossly obese, hyperinsulinaemic, insulin resistant, and not prone to ketosis. Metabolic changes related to increased insulin resistance, including oxidative stress, have been implicated in obesity-related pathophysiology. However, most attention in recent years has been devoted to the concept that obesity elicits a chronic low-grade systemic inflammatory state.
# In this study, animals were treated with 100 mg/kg of Compound 2 five days a week for 5 weeks. The circulating lymphocyte populations were identified and quantified by flow cytometry using mice monoclonal antibodies against rat CD3+ conjugated with different fluorochromes and analyzed on a FACS Calibur flow cytometer BD using the Cell Quest software.
# Nocardia brasiliensis = experiment: Reduction in mycetoma development induced in mice; assay type: in vivo; conditions: Balb-c mice, dexamethasone, 5 mg/kg and 50 mg/kg, after 15 days of treatment
# Protocol: The ability of (2R,3S)-(2-hydroxy-5-methyl-3-trimethylammonium-hexyl)-phosphonic acid dimethyl ester; iodide at 5 mg/kg and 50 mg/kg to reduce the mycetoma development induced in mice was investigated. For this, male Balb-c mice weighing 25 grams were used. Mice were treated with dexamethasone (125 mg/kg) and mycetoma was induced with the inoculation Nocardia brasiliensis (15×10^8 cells, se) (FIG. 16).
# Mycetoma is a chronic infectious disease that remains localized, involves cutaneous and subcutaneous tissue, fascia, and bone, and is noncontagious. The disease is characterized by tumefaction, draining sinuses, and the presence of sclerotia. The 31 fungi known to cause mycetoma are associated with soil and woody plants. A chronic, tumor-like deforming disease develops during subsequent years following the introduction of the etiologic agent via localized trauma.
# ALT, AST and AP in serum = experiment: Level of liver enzymes (colorimetric); assay type: in vivo, obese (fa/fa) Zucker rats (ZDF); conditions: obese Zucker rats, 100 mg/kg, p<0.01
# Protocol: To determine whether the morphological changes in liver tissue (see EXAMPLE 6) were associated with an improvement in liver function, the levels of liver enzymes were investigated. Obese (fa/fa) Zucker rats (ZDF) and lean rats, as control, were used. Obese (fa/fa) Zucker rats (ZDF) were treated with a daily dose of Compound 2 (100 mg/kg) 5 days a week during eight weeks.
# Plasma from blood samples was collected and liver enzymes were quantified by colorimetric methods. Liver enzymes, or liver (hepatic) function tests, are used to determine if the liver is functioning normally, or if it has an injury or disease. Alanine aminotransferase (ALT) is typically used to detect a liver injury or an active or chronic liver problem. Aspartate aminotransferase (AST) is used to detect liver injuries and long-term liver disease. Highly elevated levels of AST may indicate active hepatitis from any cause. Alkaline phosphatase (ALP) is an enzyme found in the bile ducts of the liver. Damage or obstruction of the bile ducts may result in elevated levels of ALP.
# THP-1 cells [4] = experiment: Cell proliferation of THP-1 cells co-stimulated with lipopolysaccharide; assay type: cell-based, human
# Protocol: The ability of (2R,3S)-(2-hydroxy-5-methyl-3-trimethylammonium-hexyl)-phosphonic acid dimethyl ester iodide to modify the cell proliferation of monocytic cells (THP-1 cells) co-stimulated with lipopolysaccharide was investigated. THP-1 cells, a human monocytic cell line, were used and cultured in RPMI 1640 medium supplemented with 10% FBS and 100 U/ml penicillin-streptomycin. Cell cultures were incubated at 37° C. and 5% CO2. THP-1 cells were plated at 1×10^6 cells/ml in 24-well microtiter plates. Cells were co-stimulated with lipopolysaccharide (LPS, 10 μg/mL) in order to induce cell proliferation. Cells were treated with the compound at different concentrations, and a reduction in the number of cells at 0.01, 10 and 100 μM at 24 hours of treatment were observed (FIG. 12).
# THP-1 cells [5] = experiment: Cell proliferation of THP-1 cells co-inhibited with hydrocortisone; assay type: cell-based, human; conditions: hydrocortisone 10 μg/mL, all used concentrations, 48 hours of treatment
# Protocol: The ability of (2R,3S)-(2-hydroxy-5-methyl-3-trimethylammonium-hexyl)-phosphonic acid dimethyl ester; iodide to modify the cell proliferation of THP-1 cells was investigated. THP-1 cells were cultured in RPMI 1640 medium supplemented with 10% FBS and 100 U/ml penicillin-streptomycin. Cell cultures were incubated at 37° C. and 5% CO2. THP-1 cells were plated at 1×10^6 cells/ml in 24-well microtiter plates. Cells were co-inhibited with hydrocortisone (10 μg/mL) to inhibit cell proliferation.
# [6] = test system: liver injury present in obese (fa/fa) Zucker rats (ZDF); experiment: Histological studies of liver tissue; assay type: in vivo; conditions: 100 mg/kg
# Protocol: The ability of Compound 2 (100 mg/kg) to modify the liver injury present in obese (fa/fa) Zucker rats (ZDF) was investigated. Obese (fa/fa) Zucker rats (ZDF) and lean rats, as control, were used. Obese (fa/fa) Zucker rats (ZDF) were treated with a daily dose of 100 mg/kg of the Compound 2, 5 days a week during eight weeks.
# Samples of tissue from liver were taken, and histological sections were made and stained with hematoxylin and eosin from obese (fa/fa) Zucker rats and lean rats.
# blood lymphocytes = experiment: T cell levels in normal rats (flow cytometry of circulating lymphocytes); assay type: in vivo; conditions: Wistar rats, 22.4 mg/kg
# Protocol: The ability of (2R,3S)-(2-hydroxy-5-methyl-3-trimethylammonium-hexyl)-phosphonic acid; iodide (referred to herein as “Compound 1”) to modify the level of blood lymphocytes in rats was investigated. (2R,3S)-(2-hydroxy-5-methyl-3-trimethylammonium-hexyl)-phosphonic acid; iodide (22.4 mg/kg) was administered to Wistar rats 5 days a week for two weeks. The circulating lymphocyte populations were identified and quantified by flow cytometry mice monoclonal antibodies against rat CD3+ conjugated with different fluorochromes and analyzed on a FACS Calibur flow cytometer BD using the Cell Quest software. […] It is noted that administration of Compound 1 increases the levels of T helper (CD4+) and cytotoxic (CD8+) lymphocytes. In addition, an increase in regulatory T cells (CD4+CD25+) (p<0.01) was observed.
# CD4+ counts = conditions: HIV-infected patients, in combination with standard antiretroviral treatment, vs antiretroviral agents with no supplementation; cited from earlier work
compound,measurement,setting,value
"COP(=O)(C[C@H](O)[C@H](CC(C)C)[N+](C)(C)C)OC [Compound 2, (2R,3S)-(2-hydroxy-5-methyl-3-trimethylammonium-hexyl)-phosphonic acid dimethyl ester; iodide]",amount of glycogen in the liver,[1]; Zucker rats,higher
same,cholesterol compared with control (lean) levels,[1]; obese Zucker rats,reached the control levels
same,glucose compared with control (lean) levels,[1]; obese Zucker rats,reached the control levels
same,cholesterol levels,"[1]; obese Zucker rats, p<0.01",significant reduction
same,glucose levels,"[1]; obese Zucker rats, p<0.01",significant reduction
same,triglycerides levels,"[1]; obese Zucker rats, p<0.01",significant reduction
same,"spleen morphology (white pulp, lymphoid follicles)",thymus and spleen,recovery
same,cellularity of medulla in thymus (histology),thymus and spleen; treated for five weeks,recovery
same,phagocytosis of yeast by macrophages,"THP-1 cells [2]; PMA-differentiated THP-1 cells, similar to macrophages treated with PMA alone",induced
same,cytotoxic lymphocytes,"[3]; obese rats, blood",significant increase
same,levels of total blood lymphocytes,"[3]; obese rats, blood",increased
same,subpopulation of T helper cells,[3]; spleen,reduction
same,subpopulation of cytotoxic lymphocytes,[3]; spleen,reduction
same,total T-lymphocytes,[3]; spleen,decline
same,cytotoxic T-lymphocytes,[3]; thymus,increase
same,double positive CD8+ CD4+ (DP) lymphocytes,[3]; thymus,slight decrease
same,population of double negative CD4-CD8- (DN) lymphocytes,[3]; thymus,slight increase
same,population of helper T cells,[3]; thymus,increase
same,cytotoxic T-lymphocyte (CD8+) levels,"blood T-lymphocytes; 5 weeks, blood",unchanged
same,level of T helper (CD4+),"blood T-lymphocytes; 5 weeks, blood",increased
same,T cell populations,"blood T-lymphocytes; 5 weeks, similar to healthy Wistar rats, although in minor intensity",increase
same,paw thickness (mycetoma),Nocardia brasiliensis,significant reduction
same,level of ALT in serum,"ALT, AST and AP in serum; 5 days a week during eight weeks",significant reduction
same,level of AP in serum,"ALT, AST and AP in serum; eight weeks",significant reduction
same,level of AST in serum,"ALT, AST and AP in serum; eight weeks",significant reduction
same,effect of LPS,THP-1 cells [4]; THP-1 cells co-stimulated with LPS 10 μg/mL,inhibit
same,number of cells (cell proliferation),"THP-1 cells [4]; THP-1 cells, LPS 10 μg/mL, at 0.01, 10 and 100 μM, 24 hours of treatment",reduction
same,cell proliferation,THP-1 cells [5],induction
same,liver histology,"[6]; eight weeks, hematoxylin and eosin",normal liver histology
same,degree of fat accumulation in the liver,[6]; five days a week for eight weeks,significant reduction
"(2R,3S)-(2-hydroxy-5-methyl-3-trimethylammonium-hexyl)-phosphonic acid; iodide [Compound 1]",level of total T-lymphocytes,"blood lymphocytes; 5 days a week for two weeks, vs control group",increased
same,levels of T helper (CD4+) lymphocytes,blood lymphocytes; two weeks,increases
same,levels of cytotoxic (CD8+) lymphocytes,blood lymphocytes; two weeks,increases
same,regulatory T cells (CD4+CD25+),"blood lymphocytes; two weeks, p<0.01",increase
same,level of total blood T-lymphocytes,"blood T-lymphocytes; five days a week for 5 weeks, vs control group",increased
C[N+](C)(C)C[C@H](O)CC(=O)[O-] [L-carnitine],improvement in CD4+ counts,CD4+ counts,greater improvement
"CCCCCCCCCCCCCC(=O)O[C@@H]1[C@@H](C)[C@@]2(O)[C@@H](C=C(CO)C[C@]3(O)C(=O)C(C)=C[C@@H]23)[C@@H]2C(C)(C)[C@]12OC(C)=O [PMA, phorbol myristate 13-acetate, reference compound]",cell differentiation of monocytic cells to macrophages,"THP-1 cells [2]; THP-1 cells, 100 ng/mL, 48 hours",observed
